Results: US20250134895A1, “METHODS AND COMPOSITIONS FOR TREATING ALPHA-SYNUCLEIN-MEDIATED NEURODEGENERATION” (UNIVERSITY HEALTH NETWORK, priority 2021, published 2025)

Legend:
[1] = biological target: T1, α-synuclein oligomers (Homo sapiens, UniProt P37840); assay: Venus YFP protein-fragment complementation assay in rat primary cortical neurons; format: cell-based; details: 72 hours; for YFP fluorescence compared with vehicle control: 10 μM
[2] = tested on: full-length Gaussia princeps luciferase; assay: Activity of full-length Gaussia luciferase alone in H4 cells; format: cell-based
Procedure: (§1) For controls in this assay, vehicle (i.e., DMSO), rapamycin, and bafilomycin A were used. Rapamycin, or sirolimus, is a small molecule that activates autophagy by inhibiting mTOR (mammalian target of rapamycin). […] To test this possibility, cells expressing α-synuclein were treated with each of the compounds and a cell permeable, resazurin-based assay was used to test for cell viability.
(§2) H4 neuroglioma cells (ATCC, HTB-148) were maintained in Dulbecco's Modified Eagle Medium plus high glucose, L-glutamine, and sodium pyruvate (ThermoFisher, 11995-065) with 10% heat-inactivated fetal bovine serum (ThermoFisher, 16140071) and 1% antibiotic-antimycotic cocktail (ThermoFisher, 15240062) at 37° C. and 5% CO2. DNA expression constructs encoding for full-length human α-synuclein fused to the N-terminal fragment of Gaussia princeps luciferase (syn-luc1), full-length human α-synuclein fused to the C-terminal fragment of Gaussia princeps luciferase (syn-luc2), and full-length Gaussia princeps luciferase were kindly provided by Dr. Pamela McLean, Mayo Clinic Jacksonville.^33 Cells were transiently co-transfected with syn-luc1 and syn-luc2 or transfected with luciferase alone using Superfect transfection reagent (Qiagen, 301305) according to the manufacturer's instructions. Twenty-four hours after transfection, cells were plated on a 96-well microplate at 60,000 cells per well. Twenty-four hours after plating, cells were treated with drugs or vehicle control. Following 24 hours of treatment, cells were washed 1 time with PBS and bioluminescence was measured using an automated CLARIOstar plate reader (Mandel, 430-0505). Cell permeable, native coelenterazine was used as the Gaussia luciferase substrate. Lyophilized coelenterazine (Nanolight, 303-500) was reconstituted in NanoFuel Solvent (Nanolight, 399-1), then diluted in PBS to 16.6 μg/mL, and dispensed per well to a final concentration of 20 μM). The bioluminescent signal generated by the luciferase enzyme was assessed at 470 nm over 5 seconds. Raw luminescence units were normalized to the DMSO vehicle control of each 96-well microplate. To assess cell viability, H4 neuroglioma cells were prepared and treated as described above and, 1 hour prior to viability analysis, cells were treated with PrestoBlue viability reagent (ThermoFisher, A13261) according to the manufacturer's instructions. Fluorescence was automatically measured using a CLARIOstar plate reader (Mandel, 430-0505) and then normalized to the fluorescence measure of the DMSO vehicle control.

[3] = biological target: T1, α-synuclein oligomers; assay: Gaussia luciferase protein-fragment complementation cell assay of α-synuclein oligomers in H4 neuroglioma cells; format: cell-based; set-up: full-length human α-synuclein fused to the N-terminal fragment of Gaussia princeps luciferase (syn-luc1); full-length human α-synuclein fused to the C-terminal fragment of Gaussia princeps luciferase (syn-luc2); expressed in transfected cells; host or cells: H4 neuroglioma cells (ATCC, HTB-148), transient co-transfection; details: for α-syn oligomers as measured by luciferase activity / decrease in luciferase activity compared with vehicle alone: 1 μM or 10 μM; for α-syn oligomers as measured by luciferase activity: Example 9; for decrease in luciferase activity compared with vehicle alone: 24 hours of treatment
Procedure: as §1, §2
We used a bioluminescent protein-fragment complementation assay in which human H4 neuroglioma cells co-express human α-synuclein tagged with the N- or C-terminal half of Gaussia princeps luciferase (FIG. 12). Reconstitution of a complete and active luciferase molecule from the fragments occurs upon α-synuclein oligomerization, and so luminescence provides an indirect measure of α-synuclein oligomer levels. H4 neuroglioma cells were co-transfected with α-syn luciferase fragments, and constructs were plated into a 96-well plate and treated with either 1 μM or 10 μM of each of the 19 drug compounds.

[4] = tested on: H4 neuroglioma cells; details: for reduced cell survival: human, 24 h
Procedure: as §1, §2

[5] = tested on: transgenic A30P α-synuclein C. elegans; assay: Coiler score and locomotion of C. elegans expressing A30P α-synuclein in dopaminergic neurons; format: in vivo, Caenorhabditis elegans; details: for reduction in coiling compared with vehicle alone (decrease): 100 μM of drug, 3 days on drug plates
Procedure: Using high-resolution, multi-worm tracking with custom image processing, methods were developed for semi-automated and blinded scoring of circularity for a population of simultaneously recorded animals (n=10 per recording). A coiler score was determined for the population tested by first calculating the circularity value for each animal in each frame of video and then calculating the proportion of circularity values >0.6. […] The coiler phenotype is an abnormal motor behaviour previously reported for several unc C. elegans strains with mutations affecting neuronal function.
Animals were synchronized by isolating eggs using alkaline hypochlorite treatment and hatching overnight. Larvae were plated onto NGM agar plates with OP50 and grown for 4 days before recording locomotion. For individual C. elegans recordings, a single adult animal was randomly picked, washed for 1 to 2 minutes in M9 buffer, and then transferred to a fresh NGM plate without food for imaging. Video images were acquired (2 frames per second) for up to 6 minutes using a sCMOS camera (pco.edge, PCO) mounted on a stereomicroscope (Olympus MVX10 MacroView) controlled using the μManager software.^55 A total of 40 individual animals were imaged for each strain. For C. elegans population recordings, ten adult animals were randomly removed using an eyelash pick, washed for 1 minute in M9 buffer, and then transferred to a fresh NGM plate without food, with a ring of copper sulfate solution (150 mM) around the area of recording (a chemorepellent to keep the animals in the recording frame). Exploratory locomotion was recorded using a CCD camera (GX1920, Allied Vision) which was attached to a dissecting stereomicroscope (Leica M165C, 1.0× PlanApo lens). A Labview program captured video (2 frames per second) at 1936×1456 resolution. Using ImageJ, the displacement, perimeter, and area of each animal was calculated, from which a circularity value was computed using the following formula: circularity=4π(A/P^2), where A is the area of the animal's body and P is the perimeter of the animal's body (both expressed in arbitrary pixel units). […] Using MATLAB (Mathworks), various behavioural metrics including the coiler score were calculated, which is the percentage of frames with a circularity value >0.6. Speed was automatically computed from the ImageJ based WrmTrk plugin as the distance travelled by each animal (in pixels) over the amount of time that it was tracked (in seconds).56 Average speed was determined by calculating the weighted average of each tracked animal's speed within a single population of animals. On the day of the recording for dopamine or raclopride treatment, adult animals were washed for 1 minute in M9 buffer, treated in a solution containing either drug for 1 minute, and then placed onto fresh NGM plates without food, with a copper sulfate solution ring around the area of recording. […] Drug plates were prepared by adding each drug to LB medium with OP50 before spreading onto fresh NGM plates. The solvent used to dissolve each drug was used as vehicle control for the drug treatment experiments (M9 buffer for dopamine, distilled water for raclopride, DMSO for all other drugs).
After 72 hours of drug treatment, animals were randomly picked, washed, and recorded. A total of ten worms were recorded per population, and twelve populations were recorded for each of the four treatment groups. Locomotion was recorded for each population over a total of 1800 frames over three minutes. The animal's movement speed, area, and perimeter were automatically analyzed as previously described. Coiler score was calculated automatically using a ratio of the animal's area to perimeter, where a higher coiler score would represent a greater degree of α-synuclein-induced dopaminergic neuron dysfunction in vivo.

[6] = tested on: control GFP C. elegans; assay: Coiler score and locomotion of control GFP C. elegans; format: in vivo, Caenorhabditis elegans; details: 1 mM, animals not expressing α-synuclein
Procedure: Animals were synchronized by isolating eggs using alkaline hypochlorite treatment and hatching overnight. Larvae were plated onto NGM agar plates with OP50 and grown for 4 days before recording locomotion. For individual C. elegans recordings, a single adult animal was randomly picked, washed for 1 to 2 minutes in M9 buffer, and then transferred to a fresh NGM plate without food for imaging. Video images were acquired (2 frames per second) for up to 6 minutes using a sCMOS camera (pco.edge, PCO) mounted on a stereomicroscope (Olympus MVX10 MacroView) controlled using the μManager software.^55 A total of 40 individual animals were imaged for each strain. For C. elegans population recordings, ten adult animals were randomly removed using an eyelash pick, washed for 1 minute in M9 buffer, and then transferred to a fresh NGM plate without food, with a ring of copper sulfate solution (150 mM) around the area of recording (a chemorepellent to keep the animals in the recording frame). Exploratory locomotion was recorded using a CCD camera (GX1920, Allied Vision) which was attached to a dissecting stereomicroscope (Leica M165C, 1.0× PlanApo lens). […] Using ImageJ, the displacement, perimeter, and area of each animal was calculated, from which a circularity value was computed using the following formula: circularity=4π(A/P^2), where A is the area of the animal's body and P is the perimeter of the animal's body (both expressed in arbitrary pixel units). […] Using MATLAB (Mathworks), various behavioural metrics including the coiler score were calculated, which is the percentage of frames with a circularity value >0.6. Speed was automatically computed from the ImageJ based WrmTrk plugin as the distance travelled by each animal (in pixels) over the amount of time that it was tracked (in seconds).56 Average speed was determined by calculating the weighted average of each tracked animal's speed within a single population of animals. […]
C. elegans were grown and maintained as previously described (Examples 1-6). […] After 72 hours of drug treatment, animals were randomly picked, washed, and recorded. […]

CCCC(=O)Nc1ccc(OCC(O)CNC(C)C)c(C(C)=O)c1 (centres unmarked) [Acebutolol]
YFP fluorescence compared with vehicle control [1]: No significant differences
changes in the activity of full-length Gaussia luciferase alone ([2]; 10 μM, FIG. 14): No statistically significant changes
α-syn oligomers as measured by luciferase activity [3]: significant decrease

CC(=O)Nc1ccc(O)cc1 [Acetaminophen]
changes in viability [4]: No statistically significant changes
changes in the activity of full-length Gaussia luciferase alone ([2]; Example 5, FIG. 5c): No statistically significant changes
decrease in luciferase activity compared with vehicle alone [3]: 14%
reduction in coiling compared with vehicle alone (decrease) [5]: 32%

CO/C1=C\C(C)=C\[C@@H](C)[C@@H](O)[C@@H](C)C/C(C)=C/C=C/[C@H](OC)[C@@H]([C@@H](C)[C@@H](O)[C@H](C)[C@@]2(O)C[C@@H](O)[C@H](C)[C@@H](C(C)C)O2)OC1=O [Bafilomycin A1, bafilomycin A1]
change in α-synuclein oligomer levels (active controls) ([3]; rapamycin 2 μM, bafilomycin A1 50 nM): increase

CN(C)CCCOc1nn(Cc2ccccc2)c2ccccc12 [Benzydamine]
α-syn oligomers as measured by luciferase activity [3]: significant decrease

Cn1c(=O)c2c(ncn2C)n(C)c1=O [Caffeine]
changes in the activity of full-length Gaussia luciferase alone ([2]; Example 5, FIG. 5c): No statistically significant changes
decrease in luciferase activity compared with vehicle alone [3]: 16%
reduction in coiling compared with vehicle alone (decrease) [5]: 37%

Oc1c(I)cc(Cl)c2cccnc12 [Clioquinol]
α-syn oligomers as measured by luciferase activity [3]: significant decrease

NCCc1ccc(O)c(O)c1 [Dopamine, dopamine]
coiling with exogenous dopamine ([5]; increasing concentrations, 1 minute treatment): decreased with treatment in a dose-dependent manner

COc1cc([C@@H]2c3cc4c(cc3[C@@H](O[C@@H]3O[C@@H]5CO[C@@H](C)O[C@H]5[C@H](O)[C@H]3O)[C@H]3COC(=O)[C@H]23)OCO4)cc(OC)c1O [Etoposide]
reduced cell survival [4]: > 15%
decrease in luciferase activity compared with vehicle alone [3]: 30%

Nc1ccn([C@@H]2CS[C@H](CO)O2)c(=O)n1 [Lamivudine]
YFP fluorescence compared with vehicle control [1]: No significant differences
changes in the activity of full-length Gaussia luciferase alone ([2]; 10 μM, FIG. 14): No statistically significant changes
α-syn oligomers as measured by luciferase activity [3]: significant decrease

Sc1ncnc2nc[nH]c12 [Mercaptopurine]
changes in viability [4]: No statistically significant changes
changes in the activity of full-length Gaussia luciferase alone ([2]; Example 5, FIG. 5c): No statistically significant changes
decrease in luciferase activity compared with vehicle alone [3]: 17%
effect on coiling / coiler score ([5]; 100 μM, 72 hr, vs DMSO vehicle): no effect

NC(=O)C[S+]([O-])C(c1ccccc1)c1ccccc1 (centres unmarked) [Modafinil]
reduced cell viability (decrease) ([4]; 1-20 μM, Example 9): 32%
concentration with significant loss in cell viability ([4]; drugs 1-20 μM, FIG. 13): < 5 µM
α-syn oligomers as measured by luciferase activity [3]: significant decrease

CN1C(C(=O)Nc2ccccn2)=C(O)c2ccccc2S1(=O)=O [Piroxicam]
reduced cell survival [4]: > 15%
decrease in luciferase activity compared with vehicle alone [3]: 19%

CCN1CCC[C@H]1CNC(=O)c1c(O)c(Cl)cc(Cl)c1OC [Raclopride, raclopride]
coiling after D2 receptor blockade [6]: recapitulated the coiling behaviour

CO[C@H]1C[C@@H]2CC[C@@H](C)[C@@](O)(O2)C(=O)C(=O)N2CCCC[C@H]2C(=O)O[C@H]([C@H](C)C[C@@H]2CC[C@@H](O)[C@H](OC)C2)CC(=O)[C@H](C)/C=C(\C)[C@@H](O)[C@@H](OC)C(=O)[C@H](C)C[C@H](C)/C=C/C=C/C=C/1C [Rapamycin]
changes in viability [4]: No statistically significant changes
decrease in fluorescence compared with vehicle alone ([1]; losartan 100 μM, rapamycin 50 nM, rifabutin 20 μM): 36%
reduction in coiling compared with vehicle alone (decrease) [5]: 30%

Cn1c(=O)c2[nH]cnc2n(C)c1=O [Theophylline]
decrease in luciferase activity compared with vehicle alone [3]: 8%

CC[C@]1(O)C[C@H]2CN(CCc3c([nH]c4ccccc34)[C@@](C(=O)OC)(c3cc4c(cc3OC)N(C=O)[C@H]3[C@@](O)(C(=O)OC)[C@H](OC(C)=O)[C@]5(CC)C=CCN6CC[C@]43[C@@H]65)C2)C1 [Vincristine]
reduced cell survival [4]: > 15%
decrease in luciferase activity compared with vehicle alone [3]: 33%
